Eight compounds from patent US10882813B2, “Method for the synthesis of ferric oraganic compounds” (Biophore India Pharmaceuticals Pvt. Ltd., priority 2014, dated 2021) can be followed below.

Where “and” joins values, the source holds several entries; their conditions need not be identical. Identical values can stand only once.

A short description of data set [1]: BET active (specific) surface area analysis, nitrogen adsorbate. The data set is classed as physicochemical. The conditions noted are these: for Specific surface area: final product of the synthesis, amorphous powder dried under vacuum at 25-30° C.; for Surface area of the sample: after one blending with water and acetone mixture and drying under vacuum at 50-55° C. The procedure:
The analysis of BET is according to the method described as: out gassing a portion of the test sample, about 100 mg at 90° C. for 1 hour at ambient pressure using nitrogen as the adsorbate gas.

Data set [2] is described as follows: Intrinsic dissolution rate. It counts as physicochemical. The conditions noted are these: final product of the synthesis, amorphous powder.

In turn, Ferric Citrate [Example IV] had a Specific surface area in data set [1] of 11.0 sq.m/g. Also, the Intrinsic dissolution rate in data set [2] was 0.231 mg/sq.cm/min.
Take Ferric Citrate [Example VI]: the “Surface area of the sample” value in data set [1] amounted to 10.3 sq.m/g.
Compound Ferric Citrate [Example I] displayed a Specific surface area in data set [1] of 12.36 sq.m/g.
Still for that read-out and setting: the result for Ferric Citrate [Example III] reads 12.0 sq.m/g.
In the case of Ferric Citrate [Example V], the Specific surface area in data set [1] worked out at 7.8 sq.m/g. In data set [2], this compound showed an Intrinsic dissolution rate of 0.31 mg/sq.cm/min.
Take `O=C([O-])CC(O)(CC(=O)[O-])C(=O)[O-].[Fe+3]` [Ferric Citrate, Iron (III) 2-hydroxypropane-1,2,3-tricarboxylate, reference compound]: the surface area in data set [1] (starting Ferric Citrate before treatment with water and acetone mixture) is 30.0 Sq.m/g and 28.6 Sq.m/g.
Ferric Citrate [Example II]: in data set [1], the Specific surface area stood at 10.6 sq.m/g.
Turning to Ferric Citrate [Example VII], the “Surface area of the sample” value in data set [1] stood at 20.0 sq.m/g. The surface area in data set [1] (after repeating the same water and acetone process) turned out to be 12.5 sq.m/g.
